Earlier results on two compounds are cited in patent US20050180917A1, “Delivery of neutron capture elements for neutron capture therapy” (priority 2001, published 2005).

For series [1] the following is noted: in vivo.
For series [2] the following is noted: review of prior art.

As to `N[C@@H](Cc1ccc(B(O)O)cc1)C(=O)O` [BPA, 4-dihydroxyborylphenylalanine], the Absolute tumour concentration in series [1] was 16.5 µg/g. Besides, in series [2], the toxicity entry was “low toxicity”.
For the compound “sodium mercaptoundecahydrododecaborate [BSH]”, in series [1], the Absolute tumour concentration is 6.9 µg/g. For the same compound, the toxicity result in series [2] is “low toxicity”.
